Data taken from patent publication US20150025012A1, “METHODS AND COMPOSITIONS FOR IDENTIFICATION, ASSESSMENT AND TREATMENT OF CANCERS ASSOCIATED WITH HEDGEHOG SIGNALING” (Infinity Pharmaceuticals, Inc., priority 2010, published 2015).
Where a name gives a salt, the structure may show the parent alone.

What was measured:
[1] = test system: hedgehog pathway; test: C3H10T1/2 alkaline phosphatase assay (Shh-dependent osteoblast differentiation); type: cell-based; settings: Mus musculus, C3H 10T1/2; HCl salt; sonic hedgehog 250 ng/ml; AP activity normalized against total protein; read-out: IC50 (antagonist of the hedgehog pathway)
Text: An exemplary assay to evaluate the activity of a hedgehog inhibitor is as follows. C3H10T1/2 cells differentiate into osteoblasts when contacted with the sonic hedgehog peptide (Shh-N). Upon differentiation, these osteoblasts produce high levels of alkaline phosphatase (AP) which can be measured in an enzymatic assay (Nakamura et al., 1997 BBRC 237: 465). Compounds that block the differentiation of C3H10T1/2 into osteoblasts (a Shh dependent event) can therefore be identified by a reduction in AP production (van der Horst et al., 2003 Bone 33: 899). The assay details are described below. Additional assays to ascertained the activity of hedgehog inhibitors, including IPI-926, are described in US 2009/0181997 by Grayzel et al., U.S. Ser. No. 61/327,373 and 61/331,365, filed on Apr. 23, 2010 and May 4, 2010, respectively; the entire contents of the aforesaid applications are incorporated herein by reference. […]
C3H10T1/2 cells were plated in 96 wells with a density of 8×10^3 cells/well. […] After incubating for 30 min at 37° C., the plates were read on an Envision plate reader at 405 nm. Total protein was quantified with a BCA protein assay kit from Pierce according to manufacturer's instructions. […]

[2] = test system: Bx-PC3 tumors; test: Growth of Bx-PC3 tumors in mice; type: in vivo; settings: single agents and combination
Text: Bevacizumab, a monoclonal antibody, exerts its activity by neutralizing VEGF, a factor important of the proliferation and survival of endothelial cells. […] In the same study, the relative effect of these agents was explored by measuring the mRNA expression of PECAM-1, a marker of endothelial cells and RGS5, a marker of pericytes. […] The role of the vasculature and its supporting pericyte population in the mechanism of action of IPI-926 continues to be explored.
For in vivo studies, tumors were grown in male NCR-nu/nu mice by subcutaneous injection of 5×10^6 cells. Tumor growth was monitored using calipers. When tumors reached an approximate size of 200 mm^3, tumor bearing animals were randomized into treatment arms and administered agents or vehicles as described.

[3] = test system: human SHh expression; test: Hedgehog ligand expression in bladder cancer cells after chemotherapy; type: cell-based; settings: 24, 48, 72 hours, highest after 144 hours

Compound | human SHh expression [3] | further results
CC1=C2C[C@H]3[C@@H](CC[C@@H]4C[C@H](NS(C)(=O)=O)CC[C@@]43C)[C@@H]2CC[C@@]2(C1)O[C@@H]1C[C@H](C)CN[C@H]1[C@H]2C [IPI-926 (HCl salt)] |  | IC50 [1]: < 20 nM
Bevacizumab: a monoclonal antibody, exerts its activity by neutralizing VEGF |  | activity on the growth of Bx-PC3 tumors [2]: approximately the same single agent activity
COc1cccc2c1C(=O)c1c(O)c3c(c(O)c1C2=O)C[C@@](O)(C(=O)CO)C[C@@H]3O[C@H]1C[C@H](N)[C@H](O)[C@H](C)O1 [doxorubicin] | increase | 
Nc1ccn([C@@H]2O[C@H](CO)[C@@H](O)C2(F)F)c(=O)n1 [gemcitabine] | increase | 
